Source: patent US20260102501A1, “ANTI-CANCER NUCLEAR HORMONE RECEPTOR-TARGETING COMPOUNDS” (Nuvation Bio Inc., priority 2022, published 2026)
Substitutions are numbered along the chain they refer to. Counter-ions that a name gives are not always drawn. Like-named read-outs stand apart in the source and are kept apart here.

Tests used:
[1] = tested on: 22Rv1 cells; assay: Cell viability assay (CellTiterGlo); conditions: Homo sapiens, 22Rv1, 144 h, read-out: 22RV1 (IC50, nM)
Procedure: (§1) Cell viability assay: LNCap, 22Rv1, MCF7, MDAMB361, T47D, and IEC6 cells were seeded at a density of 500-2000 cells/well in 96 well plates, and a ‘T0’ (timepoint 0) was included along with the assay plate. The plates were then incubated at 37° C., 5% CO2 in a cell culture incubator overnight. On the next day, the ‘T0’ plate was assayed using CellTiterGlo (Promega, Inc) according to the manufacturer's instructions. The appropriate compounds were diluted in DMSO and added to the assay plate (final DMSO concentration of 0.1-0.2%) on the next day. The assay plates were incubated for 6 days at 37° C., 5% CO2. After the incubation period, the plates were assayed using CellTiterGlo (Promega, Inc) according to the manufacturer's instructions and luminescence was read on the En Vision plate reader. […] GraphPadPrism was used to analyze the data and determine GI50/IC50 values.

[2] = molecular target: T1, ligand binding domain of the glucocorticoid receptor (HEK293 cells stably expressing) (Homo sapiens, UniProt P04150); assay: GR antagonism assay (luciferase reporter)
T1 sequence (P04150 524-758 limits assumed): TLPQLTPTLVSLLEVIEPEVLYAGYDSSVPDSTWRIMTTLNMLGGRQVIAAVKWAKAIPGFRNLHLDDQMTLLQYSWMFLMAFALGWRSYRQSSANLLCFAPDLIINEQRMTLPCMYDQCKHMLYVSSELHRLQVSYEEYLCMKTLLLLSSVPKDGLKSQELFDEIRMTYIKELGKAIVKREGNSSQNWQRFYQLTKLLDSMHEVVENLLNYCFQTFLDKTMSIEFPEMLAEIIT
Procedure: HEK293 cells stably expressing the ligand binding domain of the glucocorticoid receptor were seeded at a density of 40000 cells/well in the assay plate. The assay plate was then incubated at 37° C., 5% CO2 for 30 minutes. Dexamethasone was added to the assay plate at 1.5 nM final concentration and the assay plate incubated at 37° C., 5% CO2 for 20 h. After the incubation period, Dual-glo luciferase reagent was added to the assay plate and mixed at room temperature for 20 minutes on an orbital shaker, before reading out on the En Vision plate reader. 50 μL of Stop & Glo reagent was added to assay plate, mixed at room temperature for 20 minutes, and read on the Envision plate reader.

[3] = molecular target: T2, full-length androgen receptor (HEK293 cells stably expressing) (Homo sapiens, UniProt P10275); assay: AR antagonism assay (luciferase reporter)
T2 sequence (P10275 1-920): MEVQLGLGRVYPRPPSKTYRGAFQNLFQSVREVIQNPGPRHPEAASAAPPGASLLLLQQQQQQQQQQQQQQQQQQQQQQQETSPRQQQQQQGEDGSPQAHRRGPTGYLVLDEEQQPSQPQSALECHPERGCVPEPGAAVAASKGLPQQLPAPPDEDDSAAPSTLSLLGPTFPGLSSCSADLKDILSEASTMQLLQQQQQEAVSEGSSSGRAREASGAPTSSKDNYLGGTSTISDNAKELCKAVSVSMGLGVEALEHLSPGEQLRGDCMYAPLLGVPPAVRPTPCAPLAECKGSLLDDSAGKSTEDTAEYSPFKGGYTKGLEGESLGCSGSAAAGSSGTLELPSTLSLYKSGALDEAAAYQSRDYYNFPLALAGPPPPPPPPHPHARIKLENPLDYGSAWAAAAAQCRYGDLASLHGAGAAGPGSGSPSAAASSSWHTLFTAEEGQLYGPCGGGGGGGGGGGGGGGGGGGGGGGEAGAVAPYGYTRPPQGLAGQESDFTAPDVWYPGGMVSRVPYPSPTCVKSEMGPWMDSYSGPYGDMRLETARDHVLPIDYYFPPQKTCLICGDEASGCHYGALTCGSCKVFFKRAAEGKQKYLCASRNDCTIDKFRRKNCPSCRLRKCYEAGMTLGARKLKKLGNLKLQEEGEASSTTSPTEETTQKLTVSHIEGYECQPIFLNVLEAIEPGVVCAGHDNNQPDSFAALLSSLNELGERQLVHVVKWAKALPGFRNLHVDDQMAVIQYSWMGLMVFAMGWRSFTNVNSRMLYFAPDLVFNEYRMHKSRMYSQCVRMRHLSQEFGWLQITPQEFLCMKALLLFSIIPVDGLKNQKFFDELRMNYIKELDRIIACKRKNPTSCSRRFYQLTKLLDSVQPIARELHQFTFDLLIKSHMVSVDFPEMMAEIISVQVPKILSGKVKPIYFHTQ

[4] = molecular target: T3, AR (cytosol from LnCaP cells) (Homo sapiens, UniProt P10275, T878A); assay: AR binding assay (3H-R1881 displacement)
T3 sequence (P10275 1-920 T878A): T2 sequence (P10275 1-920) with T878A
Procedure: The plate was then centrifuged at 3000 rpm for 30 minutes at 4° C.

[5] = molecular target: T4, GR (cytosol from IM-9 cells) (Homo sapiens, UniProt P04150); assay: GR binding assay (3H-Dexamethasone displacement)
T4 sequence (P04150 1-777): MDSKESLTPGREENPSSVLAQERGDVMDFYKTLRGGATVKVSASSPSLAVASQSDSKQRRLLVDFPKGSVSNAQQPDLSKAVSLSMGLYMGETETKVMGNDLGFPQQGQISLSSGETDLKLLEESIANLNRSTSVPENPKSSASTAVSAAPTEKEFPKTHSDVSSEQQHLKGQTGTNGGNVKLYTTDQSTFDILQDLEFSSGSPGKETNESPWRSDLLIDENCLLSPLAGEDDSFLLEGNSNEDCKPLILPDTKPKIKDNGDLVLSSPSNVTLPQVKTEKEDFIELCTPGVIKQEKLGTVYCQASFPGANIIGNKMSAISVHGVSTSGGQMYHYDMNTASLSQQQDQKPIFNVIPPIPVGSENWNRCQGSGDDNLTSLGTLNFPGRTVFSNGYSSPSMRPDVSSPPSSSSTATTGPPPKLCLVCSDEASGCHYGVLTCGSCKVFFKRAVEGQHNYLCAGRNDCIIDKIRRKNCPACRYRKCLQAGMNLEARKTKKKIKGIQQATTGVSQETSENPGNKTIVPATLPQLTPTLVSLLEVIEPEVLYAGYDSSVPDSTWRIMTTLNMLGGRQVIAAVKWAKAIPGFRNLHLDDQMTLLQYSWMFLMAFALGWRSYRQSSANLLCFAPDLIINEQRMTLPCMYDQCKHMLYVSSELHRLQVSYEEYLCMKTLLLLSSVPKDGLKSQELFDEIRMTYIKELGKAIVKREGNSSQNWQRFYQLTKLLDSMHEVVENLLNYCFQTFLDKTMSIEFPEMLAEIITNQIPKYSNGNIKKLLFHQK

[6] = tested on: LNCap cells; assay: Cell viability assay (CellTiterGlo); assay type: cell-based; conditions: Homo sapiens, 144 h
[7] = tested on: IEC6 cells; assay: Cell viability assay (CellTiterGlo); conditions: Rattus norvegicus, IEC-6, 144 h, read-out: IEC-6 (IC50, nM)
Procedure: as §1

[8] = 6 days incubation, CellTiterGlo, read-out: LNCap (IC50)

| SMILES | IC50 [1] [nM] | IC50 [2] [nM] | IC50 [3] [nM] | IC50 [4] [nM] | IC50 [5] [nM] | IC50 [6, 8] [nM] | IC50 ([6]; read-out: LNCap (IC50, nM)) [nM] | IC50 [7] [nM] |
| --- | --- | --- | --- | --- | --- | --- | --- | --- |
| CC[C@@]1(OC(=O)N2CCN(CC3CCN(c4ccc(C(=O)N[C@H]5CC[C@H](Oc6ccc(C#N)c(Cl)c6C)CC5)nn4)CC3)CC2)C(=O)OCc2c1cc1n(c2=O)Cc2cc3cc(OC)ccc3nc2-1 [Compound 23, (S)-4-Ethyl-9-methoxy-3,14-dioxo-3,4,12,14-tetrahydro-1H-pyrano[3′,4′:6,7]indolizino[1,2-b]quinolin-4-yl 4-((1-(6-(((1r,4r)-4-(3-chloro-4-cyano-2-methylphenoxy)cyclohexyl)carbamoyl)pyridazin-3-yl)piperidin-4-yl)methyl)piperazine-1-carboxylate] | 101 to 1000 | > 1000 | > 1000 | 10 to 100 | > 1000 | 10 to 100 |  |  |
| CC[C@@]1(O)C(=O)OCc2c1cc1n(c2=O)Cc2cc3c(CN4CCN(C(=O)C5CCN(c6ccc(C(=O)N[C@H]7CC[C@H](Oc8ccc(C#N)c(Cl)c8C)CC7)nn6)CC5)CC4)c(O)ccc3nc2-1 [Compound 25, N-((1r,4r)-4-(3-Chloro-4-cyano-2-methylphenoxy)cyclohexyl)-6-(4-(4-(((S)-4-ethyl-4,9-dihydroxy-3,14-dioxo-3,4,12,14-tetrahydro-1H-pyrano[3′,4′:6,7]indolizino[1,2-b]quinolin-10-yl)methyl)piperazine-1-carbonyl)piperidin-1-yl)pyridazine-3-carboxamide] | 10 to 100 | > 1000 | > 1000 | < 10 | > 1000 | < 10 |  |  |
| CC[C@@]1(O)C(=O)OCc2c1cc1n(c2=O)Cc2cc3c(CN4CCN(CC5CCN(c6ccc(C(=O)N[C@H]7CC[C@H](Oc8ccc(C#N)c(Cl)c8C)CC7)nn6)CC5)CC4)c(O)ccc3nc2-1 [Compound 26, N-((1r,4r)-4-(3-Chloro-4-cyano-2-methylphenoxy)cyclohexyl)-6-(4-((4-(((S)-4-ethyl-4,9-dihydroxy-3,14-dioxo-3,4,12,14-tetrahydro-1H-pyrano[3′,4′:6,7]indolizino[1,2-b]quinolin-10-yl)methyl)piperazin-1-yl)methyl)piperidin-1-yl)pyridazine-3-carboxamide Formate] | 10 to 100 | > 1000 | > 1000 | < 10 | > 1000 | < 10 |  |  |
| CC[C@@]1(O)C(=O)OCc2c1cc1n(c2=O)Cc2cc3c(CN4CCN(C(=O)C5CCN(c6ccc(C(=O)N[C@H]7CC[C@H](Oc8ccc(C#N)c(Cl)c8C)CC7)nn6)CC5)CC4)c(OC(=O)N4CCN(C)CC4)ccc3nc2-1 [Compound 27, (S)-10-((4-(1-(6-(((1r,4r)-4-(3-Chloro-4-cyano-2-methylphenoxy)cyclohexyl)carbamoyl)-pyridazin-3-yl)piperidine-4-carbonyl)piperazin-1-yl)methyl)-4-ethyl-4-hydroxy-3,14-dioxo-3,4,12,14-tetrahydro-1H-pyrano[3′,4′:6,7]indolizino[1,2-b]quinolin-9-yl 4-methylpiperazine-1-carboxylate Formate] | 101 to 1000 | > 1000 | 101 to 1000 | < 10 | 10 to 100 |  | 10 to 100 |  |
| CC[C@@]1(O)C(=O)OCc2c1cc1n(c2=O)Cc2cc3c(CN4CCN(C(=O)CCCCCC5CCN(c6ccc(C(=O)N[C@H]7CC[C@H](Oc8ccc(C#N)c(Cl)c8C)CC7)nn6)CC5)CC4)c(O)ccc3nc2-1 [Compound No. 50] | 10 to 100 |  | > 1000 | 10 to 100 |  | 10 to 100 |  | 101 to 1000 |
| CC[C@@]1(O)C(=O)OCc2c1cc1n(c2=O)Cc2cc3c(CN4CCN(CCCCCCC5CCN(c6ccc(C(=O)N[C@H]7CC[C@H](Oc8ccc(C#N)c(Cl)c8C)CC7)nn6)CC5)CC4)c(O)ccc3nc2-1 [Compound No. 52] | 10 to 100 |  | 10 to 100 | 10 to 100 |  | 10 to 100 |  | 101 to 1000 |
| CC[C@@]1(O)C(=O)OCc2c1cc1n(c2=O)Cc2cc3c(CN4CCN(CC5CCN(c6ccc(N7C(=S)N(c8ccc(C#N)c(Cl)c8)C(=O)C7(C)C)cc6)CC5)CC4)c(O)ccc3nc2-1 [Compound No. 53, (S)-2-chloro-4-(3-(4-(4-((4-((4-ethyl-4,9-dihydroxy-3,14-dioxo-3,4,12,14-tetrahydro-1H-pyrano[3′,4′:6,7]indolizino[1,2-b]quinolin-10-yl)methyl)piperazin-1-yl)methyl)piperidin-1-yl)phenyl)-4,4-dimethyl-5-oxo-2-thioxoimidazolidin-1-yl)benzonitrile] | 10 to 100 |  | 10 to 100 | 10 to 100 |  | 10 to 100 |  | 101 to 1000 |
